# Read-outs that look alike come from different tables or passages of the source.
# Assays:
# [1] = system: Gram-negative pathogenic bacteria; assay: Checkerboard broth microdilution MIC and FICI; type: cell-based; conditions: for FICI, Fractional Inhibitory Concentration Index: in combination with Cefotaxime; for MIC: Klebsiella pneumoniae; for MIC / MIC (μg/mL) Alone: compound alone
# Description: (§1) The effects of combinations of microparticulate Bis-EDT and four Bis-EDT analogs prepared as described above, and other agents against representative strains of several Gram-negative pathogenic bacteria were tested. A modification of a common laboratory method was used to determine synergism (FICI≦0.5), enhancement (0.5<FICI≦1.0), antagonism (FICI>4.0) and indifference (1.0<FICI≦4.0) used fractional inhibitory concentrations (FICs) and FIC indices (FICI) (Eliopoulos G and R Moellering. 1991. Antimicrobial combinations. In Antibiotics in Laboratory Medicine, Third Edition, edited by V Lorian. Williams and Wilkins, Baltimore, Md., pp. 432-492; Odds, 2003 J. Antimicrob. Chemother. 52(1):1). The checkerboard technique was used to determine FIC indices and was employed in this study.
# (§2) Stock solutions of all test articles were prepared at 40× the final target concentration in the appropriate solvent. […] The final drug concentrations in the FIC assay plates were set to bracket the MIC value of each agent for each test organism, unless the strain was totally resistant to the test agent. […] The test organisms were originally received from clinical sources, or from the American Type Culture Collection. Upon receipt, the isolates were streaked onto Tryptic Soy Agar II (TSA). Colonies were harvested from these plates and a cell suspension was prepared in an appropriate broth growth medium containing cryoprotectant. Aliquots were then frozen at −80° C. The frozen seeds of the organisms to be tested in a given assay were thawed, streaked for isolation onto TSA plates, and incubated at 35° C. All organisms were tested in Mueller Hinton II Broth (Becton Dickinson, Lot No. 9044411). The broth was prepared at 1.05× normal weight/volume to offset the 5% volume of the drugs in the final test plates.
# (§3) Minimal Inhibitory Concentration (MIC) values were previously determined using the broth microdilution method for aerobic bacteria (Clinical and Laboratory Standards Institute (CLSI). Methods for Dilution Antimicrobial Susceptibility Tests for Bacteria That Grow Aerobically; Approved Standard—Eighth Edition. CLSI document M07-A8 [ISBN 1-56238-689-1]. Clinical and Laboratory Standards Institute, 940 West Valley Road, Suite 1400, Wayne, Pa. 19087-1898 USA, 2009.).
# (§4) FIC values were determined using a broth microdilution method previously described (Sweeney et al., 2003 Antimicrob. Agents Chemother. 47(6):1902-1906). To prepare the test plates, automated liquid handlers (Multidrop 384, Labsystems, Helsinki, Finland; Biomek 2000 and Multimek 96, Beckman Coulter, Fullerton Calif.) were used to conduct serial dilutions and liquid transfers.
# (§5) The appropriate wells of standard 96-well microdilution plates (Falcon 3918) were filled with 150 μL of the appropriate solvent in columns 2-12 using the Multidrop 384. Three hundred microliters of each secondary test drug was added to each well in Column 1 of the plates. These plates were used to prepare the drug “mother plates” which provided the serial drug dilutions for the drug combination plates. The Biomek 2000 was used to transfer 150 μL of each secondary drug solution (40×) from the wells in Column 1 of the mother plate and to make eleven 2-fold serial dilutions. Mother plates of Bis-EDT (and analogs) were serial diluted top to bottom by hand, using a multichannel pipette. Two mother plates, one for each secondary drug and one for Bis-EDT (or analogs), were combined to form a “checkerboard” pattern by transfer of equal volumes (using a multi-channel pipette) to the drug combination plate. Row H and Column 12 each contained serial dilutions of one of the agents alone for determination of the MIC.
# (§6) The “daughter plates” were loaded with 180 μL of test medium using the Multidrop 384. Then, the Multimek 96 was used to transfer 10 μL of drug solution from each well of the drug combination mother plate to each corresponding well of the daughter plate in a single step.
# [2] = system: P. aeruginosa; assay: Checkerboard broth microdilution MIC and FICI; type: cell-based, Pseudomonas aeruginosa; conditions: for MIC (μg/mL) Alone / MIC: compound alone; for MIC: Pseudomonas aeruginosa
# Description: as §1, §2, §3, §4, §5, §6
# [3] = system: Enterococcus faecalis; assay: Single-point BisEDT-antibiotic combination FICI; type: cell-based; conditions: E Fc 3121
# [4] = system: Streptococcus pneumoniae (SP, PRSP); assay: Single-point BisEDT-antibiotic combination FICI; conditions: PRSP 5348
# [5] = system: Staphylococcus aureus (SA, MRSA); assay: Single-point BisEDT-antibiotic combination FICI; type: cell-based; conditions: MRSA 773
# [6] = system: S. aureus; assay: Broth dilution MIC/MBC, BT-antibiotic combinations; type: cell-based, Staphylococcus aureus
# Description: Materials & Methods. Susceptibility studies were performed by broth dilution in 96-well tissue culture plates (Nalge Nunc International, Denmark) in accordance with NCCLS protocols (National Committee for Clinical Laboratory Standards. (1997). Methods for Dilution Antimicrobial Susceptibility Tests for Bacteria that Grow Aerobically: Approved Standard M7-A2 and Informational Supplement M100-S10. NCCLS, Wayne, Pa., USA).
# Briefly, overnight bacterial cultures were used to prepare 0.5 McFarland standard suspensions, which were further diluted 1:50 (˜2×10^6 cfu/mL) in cation-adjusted Mueller-Hinton broth medium (BBL, Cockeysville, Md., USA). BTs (prepared as described above) and antibiotics were added at incremental concentrations, keeping the final volume constant at 0.2 mL. Cultures were incubated for 24 h at 37° C. and turbidity was assessed by absorption at 630 nm using an ELISA plate reader (Biotek Instruments, Winooski, Vt., USA) according to the manufacturer's recommendations. […] Viable bacterial counts (cfu/mL) were determined by standard plating on nutrient agar.
# The checkerboard method was used to assess the activity of antimicrobial combinations. The fractional inhibitory concentration index (FICI) and the fractional bactericidal concentration index (FBCI) were calculated, according to Eliopoulos et al. (Eliopoulos and Moellering, (1996) Antimicrobial combinations. In Antibiotics in Laboratory Medicine (Lorian, V., Ed.), pp. 330-96, Williams and Wilkins, Baltimore, Md., USA). Synergy was defined as an FICI or FBCI index of […], no interaction at >0.5-4 and antagonism at >4 (Odds, F C (2003) Synergy, antagonism, and what the chequerboard puts between them. Journal of Antimicrobial Chemotherapy 52:1). Synergy was also defined conventionally as ≧4-fold decrease in antibiotic concentration.
# [7] = P. aeruginosa 103, in combination with Cefepime
# [8] = P. aeruginosa 103, in combination with Cefotaxime
# [9] = P. aeruginosa 1381, in combination with Cefepime
# [10] = P. aeruginosa 1384, in combination with Cefepime
# [11] = P. aeruginosa 1474, in combination with Cefepime
# [12] = P. aeruginosa 1479, in combination with Cefepime
# [13] = P. aeruginosa 2566, in combination with Cefepime
# [14] = P. aeruginosa 2568, in combination with Cefepime
# [15] = MRSA S2446-3, BE = 0.2 μg/ml BisEDT
# [16] = S. aureus ATCC 25923, BE = 0.2 μg/ml BisEDT
SMILES,"FICI, Fractional Inhibitory Concentration Index ([1]; K. pneumoniae 1346)","FICI, Fractional Inhibitory Concentration Index ([1]; K. pneumoniae 1355)","FICI, Fractional Inhibitory Concentration Index ([1]; K. pneumoniae 2238)","FICI, Fractional Inhibitory Concentration Index ([1]; K. pneumoniae 2541)","FICI, Fractional Inhibitory Concentration Index ([1]; K. pneumoniae 2546)","FICI, Fractional Inhibitory Concentration Index ([1]; K. pneumoniae 2549)","FICI, Fractional Inhibitory Concentration Index [2, 7]","FICI, Fractional Inhibitory Concentration Index [2, 8]",MIC (μg/mL) Alone ([2]; P. aeruginosa 1381) [µg/mL],"FICI, Fractional Inhibitory Concentration Index [2, 9]",MIC (μg/mL) Alone ([2]; P. aeruginosa 1384) [µg/mL],"FICI, Fractional Inhibitory Concentration Index [2, 10]","FICI, Fractional Inhibitory Concentration Index [2, 11]","FICI, Fractional Inhibitory Concentration Index [2, 12]","FICI, Fractional Inhibitory Concentration Index [2, 13]","FICI, Fractional Inhibitory Concentration Index [2, 14]","FICI, single-point BisEDT-antibiotic combination [3]","FICI, single-point BisEDT-antibiotic combination [4]","FICI, single-point BisEDT-antibiotic combination [5]","Δ [6, 15]",further results
"OCC(S)CS.[Bi] (centres unmarked) [MB-2B, bismuth-2,3-dimercaptopropanol]",1.19,1.19,1.64,0.64,1.16,0.83,0.61,1.11,4,1.09,4,0.94,0.98,1.11,1.23,1.11,–,–,–,–,"MIC ([1]; read-out: MIC (μg/mL) Alone, K. pneumoniae 1346): 4 µg/mL; MIC ([1]; read-out: MIC (μg/mL) Alone, K. pneumoniae 1355): 4 µg/mL; MIC ([1]; read-out: MIC (μg/mL) Alone, K. pneumoniae 2238): 4 µg/mL; MIC ([1]; read-out: MIC (μg/mL) Alone, K. pneumoniae 2541): 8 µg/mL; MIC ([1]; read-out: MIC (μg/mL) Alone, K. pneumoniae 2546): 8 µg/mL; MIC ([1]; read-out: MIC (μg/mL) Alone, K. pneumoniae 2549): 8 µg/mL; FICI, Fractional Inhibitory Concentration Index ([2]; P. aeruginosa 103, in combination with Aztreonam): 1.08; FICI, Fractional Inhibitory Concentration Index ([2]; P. aeruginosa 1381, in combination with Aztreonam): 0.89; FICI, Fractional Inhibitory Concentration Index ([2]; P. aeruginosa 1384, in combination with Aztreonam): 0.91; FICI, Fractional Inhibitory Concentration Index ([2]; P. aeruginosa 1474, in combination with Aztreonam): 0.54; FICI, Fractional Inhibitory Concentration Index ([2]; P. aeruginosa 1479, in combination with Aztreonam): 0.87; FICI, Fractional Inhibitory Concentration Index ([2]; P. aeruginosa 2566, in combination with Aztreonam): 0.91; FICI, Fractional Inhibitory Concentration Index ([2]; P. aeruginosa 2568, in combination with Aztreonam): 0.87; MIC ([2]; read-out: MIC (μg/mL) Alone, P. aeruginosa 1381): 8 µg/mL; MIC ([2]; read-out: MIC (μg/mL) Alone, P. aeruginosa 1384): 8 µg/mL"
CC[C@H]1OC(=O)[C@H](C)[C@@H](O[C@H]2C[C@@](C)(OC)[C@@H](O)[C@H](C)O2)[C@H](C)[C@@H](O[C@@H]2O[C@H](C)C[C@H](N(C)C)[C@H]2O)[C@](C)(O)C[C@@H](C)C(=O)[C@H](C)[C@@H](O)[C@]1(C)O [Erythromycin],–,–,–,–,–,–,–,–,–,–,–,–,–,–,–,–,0.92,1.03,0.67,–,–
Cc1onc(-c2ccccc2)c1C(=O)N[C@@H]1C(=O)N2[C@@H]1SC(C)(C)[C@@H]2C(=O)O [Oxacillin],–,–,–,–,–,–,–,–,–,–,–,–,–,–,–,–,0.92,1.03,2.28,–,–
"C1C[S][Bi]([S]CC[S][Bi]2[S]CC[S]2)[S]1 [MB-1B-3, bismuth-1,2-ethane dithiol]",1.23,2.29,1.29,1.23,1.12,0.79,0.71,0.96,1,1.29,1,0.79,0.79,1.12,1.37,0.79,–,–,–,–,MIC (μg/mL) Alone ([1]; K. pneumoniae 1346): 2 µg/mL; MIC (μg/mL) Alone ([1]; K. pneumoniae 1355): 1 µg/mL; MIC (μg/mL) Alone ([1]; K. pneumoniae 2238): 1 µg/mL; MIC (μg/mL) Alone ([1]; K. pneumoniae 2541): 2 µg/mL; MIC (μg/mL) Alone ([1]; K. pneumoniae 2546): 1 µg/mL; MIC (μg/mL) Alone ([1]; K. pneumoniae 2549): 1 µg/mL; MIC (μg/mL) Alone ([2]; P. aeruginosa 103): 1 µg/mL; MIC (μg/mL) Alone ([2]; P. aeruginosa 1474): 1 µg/mL; MIC (μg/mL) Alone ([2]; P. aeruginosa 1479): 1 µg/mL; MIC (μg/mL) Alone ([2]; P. aeruginosa 2566): 0.5 µg/mL; MIC (μg/mL) Alone ([2]; P. aeruginosa 2568): 1 µg/mL
"NC[C@@H]1O[C@H](O[C@H]2[C@@H](O)[C@H](O[C@@H]3[C@@H](O)[C@H](N)C[C@H](N)[C@H]3O[C@H]3O[C@H](CN)[C@@H](O)[C@H](O)[C@H]3N)O[C@@H]2CO)[C@H](N)[C@@H](O)[C@@H]1O [NEO, Neomycin]",–,–,–,–,–,–,–,–,–,–,–,–,–,–,–,–,–,–,–,1.6,"MIC ([6]; MRSA S2446-3, antibiotic alone): 13.400 µg/mL; MIC + BE ([6]; MRSA S2446-3, with 0.2 μg/ml BisEDT): 8.500 µg/mL; Δ [6, 16]: 2.5; MIC ([6]; S. aureus ATCC 25923, antibiotic alone): 0.500 µg/mL; MIC + BE ([6]; S. aureus ATCC 25923, with 0.2 μg/ml BisEDT): 0.200 µg/mL"
"NC[C@@H]1O[C@H](O[C@H]2[C@@H](O)[C@H](O[C@@H]3[C@@H](O)[C@H](N)C[C@H](N)[C@H]3O[C@H]3O[C@H](CO)[C@@H](O)[C@H](O)[C@H]3N)O[C@@H]2CO)[C@H](N)[C@@H](O)[C@@H]1O [PARO, Paromomycin]",–,–,–,–,–,–,–,–,–,–,–,–,–,–,–,–,–,–,–,1.8,"Synergy [6, 16]: + (Synergy was also defined conventionally as ≧4-fold decrease in antibiotic concentration); Δ [6, 16]: 5.7; MIC ([6]; Staphylococcus aureus, ATCC25923, S. aureus ATCC 25923, antibiotic alone, read-out: MIC): 1.08 µg/mL; MIC ([6]; Staphylococcus aureus, ATCC25923, S. aureus ATCC 25923, with 0.2 μg/ml BisEDT, read-out: MIC + BE): 0.188 µg/mL; MIC ([6]; Staphylococcus aureus, MRSA, MRSA S2446-3, antibiotic alone, read-out: MIC): 335 µg/mL; MIC ([6]; Staphylococcus aureus, MRSA, MRSA S2446-3, with 0.2 μg/ml BisEDT, read-out: MIC + BE): 183 µg/mL"

# Reference: patent US9408393B2, “Bismuth-thiols as antiseptics for agricultural, industrial and other uses” (Microbion Corporation, priority 2010, dated 2016)
